Test results: patent publication US10730884B2, “Substituted indole compound derivatives as dengue viral replication inhibitors” (Janssen Pharmaceuticals, Inc., priority 2016, dated 2020)
Like-named read-outs stand apart in the source and are kept apart here.

Assays:
DENV-2 16681 strain = experiment: DENV-2 antiviral assay (eGFP-labeled virus, Vero cells); format: cell-based, Dengue virus; conditions: for EC50: DENV-2 16681 eGFP, Vero cells, MOI 0.5, 3 days; for SI: SI=CC50/EC50, DENV-2 antiviral assay
Method: The antiviral activity of all the compounds of the invention was tested against the DENV-2 16681 strain which was labeled with enhanced green fluorescent protein (eGPF). The culture medium consists of minimal essential medium supplemented with 2% of heat-inactivated fetal calf serum, 0.04% gentamycin (50 mg/mL) and 2 mM of L-glutamine. Vero cells, obtained from ECACC, were suspended in culture medium and 25 μL was added to 384-well plates (2500 cells/well), which already contain the antiviral compounds. Typically, these plates contain a 5-fold serial dilution of 9 dilution steps of the test compound at 200 times the final concentration in 100% DMSO (200 nL). […] Finally, each plate contains wells which are assigned as virus controls (containing cells and virus in the absence of compound), cell controls (containing cells in the absence of virus and compound) and medium controls (containing medium in the absence of cells, virus and compounds). To the wells assigned as medium control, 25 μL of culture medium was added instead of Vero cells. Once the cells were added to the plates, the plates were incubated for 30 minutes at room temperature to allow the cells to distribute evenly within the wells. Next, the plates were incubated in a fully humidified incubator (37° C., 5% CO2) until the next day. Then, DENV-2 strain 16681, labeled with eGFP, was added at a multiplicity of infection (MOI) of 0.5. Therefore, 15 μL of virus suspension was added to all the wells containing test compound and to the wells assigned as virus control. In parallel, 15 μL of culture medium was added to the medium and cell controls. Next, the plates were incubated for 3 days in a fully humidified incubator (37° C., 5% CO2). At the day of the read out, the eGFP fluorescence was measured using an automated fluorescence microscope at 488 nm (blue laser). Using an in-house LIMS system, inhibition dose response curves for each compound were calculated and the half maximal effective concentration (EC50) was determined. Therefore, the percent inhibition (I) for every test concentration is calculated using the following formula: I=100*([…])/(SVC−SCC); ST, SCC and SVC are the amount of eGFP signal in the test compound, cell control and virus control wells, respectively. The EC50 represents the concentration of a compound at which the virus replication is inhibited with 50%, as measured by a 50% reduction of the eGFP fluorescent intensity compared to the virus control. The EC50 is calculated using linear interpolation (Table 1).

in vitro [1] = conditions: African green monkey
in vitro [2] = format: cell-based; conditions: African green monkey, CC50
Method: (§1) The antiviral activity of the compounds of the invention was tested against DENV-1 strain TC974#666 (NCPV), DENV-2 strain 16681, DENV-3 strain H87 (NCPV) and DENV-4 strain H241 (NCPV) in a RT-qPCR assay. Therefore, Vero cells were infected with either DENV-1, or -2, or -3, or -4 in the presence or absence of test compounds. At day 3 post-infection, the cells were lysed and cell lysates were used to prepare cDNA of both a viral target (the 3′UTR of DENV; Table 2) and a cellular reference gene (β-actin, Table 2). Subsequently, a duplex real time PCR was performed on a Lightcycler480 instrument. The generated Cp value is inversely proportional to the amount of RNA expression of these targets. Inhibition of DENV replication by a test compound result in a shift of Cp's for the 3′UTR gene. On the other hand, if a test compound is toxic to the cells, a similar effect on β-actin expression will be observed. The comparative ΔΔCp method is used to calculate EC50, which is based on the relative gene expression of the target gene (3′UTR) normalized with the cellular housekeeping gene (β-actin). In addition, CC50 values are determined based on the Cp values acquired for the housekeeping gene β-actin.
(§2) The culture medium consisted of minimal essential medium supplemented with 2% of heat-inactivated fetal calf serum, 0.04% gentamycin (50 mg/mL) and 2 mM of L-glutamine. Vero cells, obtained from ECACC, were suspended in culture medium and 75 μL/well was added in 96-well plates (10000 cells/well), which already contain the antiviral compounds. […] In addition, each plate contains wells which are assigned as virus controls (containing cells and virus in the absence of compound) and cell controls (containing cells in the absence of virus and compound). Once the cells were added in the plates, the plates were incubated in a fully humidified incubator (37° C., 5% CO2) until the next day. Dengue viruses serotype-1, 2, 3 and 4 were diluted in order to obtain a Cp of ˜22-24 in the assay. Therefore, 25 μL of virus suspension was added to all the wells containing test compound and to the wells assigned as virus control. In parallel, 25 μL of culture medium was added to the cell controls. Next, the plates were incubated for 3 days in a fully humidified incubator (37° C., 5% CO2). After 3 days, the supernatant was removed from the wells and the cells were washed twice with ice-cold PBS (˜100 μL). The cell pellets within the 96-well plates were stored at −80° C. for at least 1 day. Next, RNA was extracted using the Cells-to-CT™ lysis kit, according to the manufacturer's guideline (Life Technologies). The cell lysates can be stored at −80° C. or immediately used in the reverse transcription step.
(§3) Using the LightCycler software and an in-house LIMS system, dose response curves for each compound were calculated and the half maximal effective concentration (EC50) and the half maximal cytotoxic concentration (CC50) were determined (Tables 5-8).

DENV-1 strain TC974#666 = experiment: Tetravalent RT-qPCR assay, serotype 1; format: cell-based, Dengue virus; conditions: for EC50: Dengue virus, DENV1, Vero, 72 h, RT-qPCR serotype 1 TC974#666, Protocol A, Vero cells, day 3; for SI: RT-qPCR serotype 1 TC974#666
Method: as §1, §2
(§4) In preparation of the reverse transcription step, mix A (table 3A) was prepared and 7.57 μL/well was dispensed in a 96-well plate. After addition of 5 μL of the cell lysates, a five minute denaturation step at 75° C. was performed (table 3B). Afterwards, 7.43 μL of mix B was added (table 3C) and the reverse transcription step was initiated (table 3D) to generate cDNA.
(§5) Finally, a RT-qPCR mix was prepared, mix C (table 4A), and 22.02 μL/well was dispensed in 96-well LightCycler qPCR plates to which 3 μL of cDNA was added and the qPCR was performed according to the conditions in table 4B on a LightCycler 480.
as §3

Vero cells = conditions: African green monkey
DENV-4 strain H241 = experiment: Tetravalent RT-qPCR assay, serotype 4; format: cell-based, Dengue virus; conditions: for EC50: Dengue virus, DENV4, Vero, 72 h, RT-qPCR serotype 4 H241, Protocol A, Vero cells, day 3; for SI: RT-qPCR serotype 4 H241
Method: as §1, §2, §4, §5, §3

DENV-3 strain H87 = experiment: Tetravalent RT-qPCR assay, serotype 3; format: cell-based, Dengue virus; conditions: for EC50: Dengue virus, DENV3, Vero, 72 h, RT-qPCR serotype 3 H87, Protocol A, Vero cells, day 3; for SI: RT-qPCR serotype 3 H87
Method: as §1, §2, §4, §5, §3

DENV-2 strain 16681 = experiment: Tetravalent RT-qPCR assay, serotype 2; format: cell-based, Dengue virus; conditions: for EC50: Dengue virus, DENV2, Vero, 72 h, RT-qPCR serotype 2 16681, Protocol A, Vero cells, day 3; for SI: RT-qPCR serotype 2 16681
Method: as §1, §2, §4, §5, §3

| Structure (SMILES) | EC50 (DENV-2 16681 strain; Dengue virus, DENV2, Vero, 72 h) | SI (DENV-2 16681 strain) | melting point | CC50 (in vitro [1]) | CC50 at 3 days (in vitro [2]) | EC50 (DENV-1 strain TC974#666; read-out: EC50) | SI (DENV-1 strain TC974#666) | CC50 (Vero cells) | EC50 (DENV-2 16681 strain) | EC50 (DENV-4 strain H241) | SI (DENV-4 strain H241) | EC50 (DENV-3 strain H87; read-out: EC50) | SI (DENV-3 strain H87) | EC50 (DENV-2 strain 16681) | SI (DENV-2 strain 16681) | EC50 (DENV-1 strain TC974#666) | EC50 (DENV-3 strain H87) |
| --- | --- | --- | --- | --- | --- | --- | --- | --- | --- | --- | --- | --- | --- | --- | --- | --- | --- |
| COc1cc(NC(C(=O)c2c[nH]c3ccc(C)cc23)c2ccc(F)cc2OC)cc(OCCO)c1 (racemic) [Compound 5, 2-(4-fluoro-2-methoxyphenyl)-2-((3-(2-hydroxyethoxy)-5-methoxyphenyl)amino)-1-(5-methyl-1H-indol-3-yl)ethanone] | 4.8 nM | 3190 | 199 °C | 14000 nM |  |  |  |  |  |  |  |  |  |  |  |  |  |
| COc1cc(NC(C(=O)c2c[nH]c3cc(OC)c(Cl)cc23)c2ccc(F)cc2OC)cc(OCCO)c1 (single isomer, unassigned) [Compound 2A] |  | 6340 |  |  | 2900 nM | 9.2 nM | 350 | 4500 nM | 0.71 nM | 230 nM | 9.1 | 34 nM | 90 | 1 nM | 3350 |  |  |
| COc1cc(NC(C(=O)c2c[nH]c3cc(F)c(C)cc23)c2ccc(Cl)cc2OC)cc(OCCO)c1 (single isomer, unassigned) [Compound 9B] |  | 7480 |  |  | 3000 nM | 1.4 nM | 1700 |  | 0.44 nM | 92 nM | 28 | 16 nM | 234 | 0.69 nM | 5540 |  |  |
| COc1cc(NC(C(=O)c2c[nH]c3c(C)cc(Cl)cc23)c2ccc(F)cc2OC)cc(OCCO)c1 (single isomer, unassigned) [Compound 1A] |  | 2070 |  |  | 2900 nM | 6.2 nM | 461 | 3600 nM | 1.7 nM | 220 nM | 8.7 | 39 nM | 49 | 3.2 nM | 1080 |  |  |
| COc1cc(NC(C(=O)c2c[nH]c3cc(OC(F)(F)F)c(C)cc23)c2ccc(F)cc2OC)cc(OCCO)c1 (single isomer, unassigned) [Compound 4B] |  | 409 |  |  | 3800 nM | 24 nM | 128 | 3300 nM | 8.1 nM | 300 nM | 8.1 | 120 nM | 16 | 6.6 nM | 553 |  |  |
| [2H]C(Nc1cc(OC)cc(OCCO)c1)(C(=O)c1c[nH]c2cc(OC)c(C)cc12)c1ccc(Cl)cc1OC (single isomer, unassigned) [Compound 14A-D] |  | 17600 |  | 3600 nM | > 2300 nM |  | 1070 |  | 0.26 nM | 74 nM | >46 |  | >261 | 0.29 nM | >11900 | 3 nM | 9.8 nM |
| COc1cc(NC(C(=O)c2c[nH]c3ccc(C)cc23)c2ccc(F)cc2OC)cc(OCCO)c1 (single isomer, unassigned) [Compound 5A] |  | 2910 |  | 5800 nM | 10000 nM | 7 nM | 1430 |  | 2.5 nM | 270 nM | 21 | 50 nM | 207 | 2.7 nM | 4290 |  |  |
| COc1cc(NC(C(=O)c2c[nH]c3cc4c(cc23)CCO4)c2ccc(Cl)cc2OC)cc(OCCO)c1 (single isomer, unassigned) [Compound 10B] |  | 19700 |  |  |  | 3.2 nM | 3340 | 9500 nM | 0.32 nM | 110 nM | >29 | 22 nM | 316 | 0.4 nM | 23600 |  |  |
